Results as given in patent EP3187180A1, “ADENOSYLHOMOCYSTEINASE BINDING SUBSTANCES FOR MEDICAL USE” (Ludwig-Maximilians-Universität München, priority 2015, dated 2017).
Positions count from the first letter of the chain named. Like-named read-outs stand apart in the source and are kept apart here.

Legend:
AHCY A89V = target: T1, AHCY A89V (Homo sapiens, UniProt P23526, A89V); experiment: Differential Scanning Fluorimetry (DSF), thermal unfolding; assay type: binding; details: for TM = Temperature at the midpoint of protein unfolding transition: No NAD^+: 50,29
T1 construct: made in house; host or cells: E. coli DH5a (with or without GroESL co-expression)
T1 sequence (P23526 1-432 A89V): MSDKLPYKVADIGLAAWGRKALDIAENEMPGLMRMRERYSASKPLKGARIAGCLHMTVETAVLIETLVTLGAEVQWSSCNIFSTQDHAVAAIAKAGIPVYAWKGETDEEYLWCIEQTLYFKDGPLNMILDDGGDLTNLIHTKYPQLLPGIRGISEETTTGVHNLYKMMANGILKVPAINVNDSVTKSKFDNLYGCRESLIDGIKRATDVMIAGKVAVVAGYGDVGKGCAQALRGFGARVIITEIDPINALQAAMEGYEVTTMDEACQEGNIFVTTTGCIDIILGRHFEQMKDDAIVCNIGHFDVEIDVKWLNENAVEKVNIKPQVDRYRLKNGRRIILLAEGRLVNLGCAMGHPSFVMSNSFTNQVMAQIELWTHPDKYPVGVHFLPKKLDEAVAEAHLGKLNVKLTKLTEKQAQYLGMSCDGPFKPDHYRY
Experimental: (§1) The potential of the binding of NAD^+ or an analogue of NAD^+ to the NAD^+ binding site and of the binding of an analogue of a substrate of AHCY to the substrate binding site of AHCY in stabilizing the enzyme and its activity was analyzed by use of Differential Scanning Fluorimetry (DSF). The following substrates were tested in the given concentrations:
(§2) The following five mutant proteins were selected for testing: • R49C, D86G, Y143C, A89V and Y379C.
(§3) Fluorescence measurements were carried out on a 7900 HT fast real-time PCR System (Applied Biosystems, Thermo Fisher Scientific Inc. USA). The data was recorded in Abi Prism SDS software. Samples contained AHCY-Maltose-Binding Protein fusion proteins, HEPES, and SYPRO Orange fluorescence dye (SYPRO® Orange Protein Gel Stain from Invitrogen, Thermo Fisher Scientific Inc. USA) in a 1:1000 dilution), which binds to exposed hydrophobic sites of unfolded proteins. For this dye, the wavelengths used for excitation and emission are 492 nm, respectively 610 nm. The assay was measured in quadruplicates on a 96-well PCR plate. Thermal denaturation was monitored by following the changes in SYPRO Orange fluorescence emission (excitation at 492 nm, emission at 610 nm). The measurement was performed in a 25 °C to 75 °C range, at a rate of 2 °C/min. Thermal denaturation curves were obtained by the plotting of fluorescence intensities against temperature and TM values as the midpoint of the protein-unfolding transition were calculated using the Boltzmann sigmoidal non-linear regression function in GraphPad Prism (GraphPad Prism 5.0, GraphPad Software Inc. USA). All measurements were corrected for background reduction of SYPRO Orange fluorescence. To analyze the stabilizing effect of different compounds different concentrations of NAD^+, NAD^+ analogues and substrate analogues were added to the samples. Significances between wild-type and mutated apoenzymes and holoenzymes with stabilizing agents were calculated by one-way analysis of variance followed by Dunnett's post test (GraphPad Prism 5.0, GraphPad Software Inc. USA).
(§4) DSF is an excellent means to monitor global thermal unfolding events by probing the accessibility of the fluorescent dye Sypro Orange to hydrophobic groups within a protein. DSF was used in order to assess whether mutated AHCY proteins can be stabilized by various compounds at increasing temperatures. The stabilizing effect was evaluated by comparison of the unfolding transition midpoints (fraction unfolded = 0.5) as an operative measure of protein stability and by graphical analysis of the thermal denaturation curves. The midpoint of thermal unfolding of wild-type AHCY was shifted by an average of 2.27 °C towards higher temperatures by NAD^+ and NAD^+ analogues.

[1] = system: AHCY wild-type and mutated AHCY proteins; experiment: Differential Scanning Fluorimetry (DSF), statements over the panel of proteins; assay type: binding, human; details: wild-type and/or mutated AHCY proteins, 1-100 µM or 5-100 µM
AHCY D86G = target: T2, AHCY D86G (Homo sapiens, UniProt P23526, D86G); experiment: Differential Scanning Fluorimetry (DSF), thermal unfolding; assay type: binding; details: for ΔTm at 100 µM: read-out: ΔTM (midpoint of thermal unfolding shifted by); for TM = Temperature at the midpoint of protein unfolding transition: No NAD^+: 49,55
T2 construct: made in house; host or cells: E. coli DH5a (with or without GroESL co-expression)
T2 sequence (P23526 1-432 D86G): T1 sequence (P23526 1-432 A89V) with D86G, V89A
Experimental: as §1, §2, §3, §4

AHCY R49C = target: T3, AHCY R49C (Homo sapiens, UniProt P23526, R49C); experiment: as above; assay type: binding; details: for TM = Temperature at the midpoint of protein unfolding transition: No NAD^+: 49,84
T3 construct: made in house; host or cells: E. coli DH5a (with or without GroESL co-expression)
T3 sequence (P23526 1-432 R49C): T1 sequence (P23526 1-432 A89V) with R49C, V89A
Experimental: as §1, §2, §3, §4

AHCY Y143C = target: T4, AHCY Y143C (Homo sapiens, UniProt P23526, Y143C); experiment: as above; assay type: binding; details: No NAD^+: 49,34
T4 construct: made in house; host or cells: E. coli DH5a (with or without GroESL co-expression)
T4 sequence (P23526 1-432 Y143C): T1 sequence (P23526 1-432 A89V) with V89A, Y143C
Experimental: as §1, §2, §3, §4

AHCY Y379C = target: T5, AHCY Y379C (Homo sapiens, UniProt P23526, Y379C); experiment: as above; assay type: binding; details: No NAD^+: 50,01
T5 construct: made in house; host or cells: E. coli DH5a (with or without GroESL co-expression)
T5 sequence (P23526 1-432 Y379C): T1 sequence (P23526 1-432 A89V) with V89A, Y379C
Experimental: as §1, §2, §3, §4

wild-type AHCY = target: T6, wild-type AHCY (Homo sapiens, UniProt P23526); experiment: as above; assay type: binding; details: for TM = Temperature at the midpoint of protein unfolding transition: Wt, No NAD^+: 51,98
T6 construct: made in house; host or cells: E. coli DH5a (with or without GroESL co-expression)
Experimental: as §1, §3, §4

T6 sequence (P23526 whole entry): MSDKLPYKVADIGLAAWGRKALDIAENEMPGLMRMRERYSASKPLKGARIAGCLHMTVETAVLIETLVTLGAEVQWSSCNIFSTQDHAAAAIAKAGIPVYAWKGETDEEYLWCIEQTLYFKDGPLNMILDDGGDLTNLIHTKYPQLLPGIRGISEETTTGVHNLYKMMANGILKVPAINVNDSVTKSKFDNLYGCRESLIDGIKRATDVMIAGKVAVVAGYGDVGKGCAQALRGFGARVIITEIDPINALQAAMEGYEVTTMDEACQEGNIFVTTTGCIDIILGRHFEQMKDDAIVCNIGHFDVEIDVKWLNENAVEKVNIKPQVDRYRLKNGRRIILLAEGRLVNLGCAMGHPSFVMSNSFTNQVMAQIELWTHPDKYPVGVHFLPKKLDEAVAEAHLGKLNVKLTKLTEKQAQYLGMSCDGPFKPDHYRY

With `C=C1CCC[C@H]2[C@](C)(CC3=C(O)C(=O)C=C(OC)C3=O)[C@@H](C)CC[C@]12C` [ilimaquinone] the “shifting the midpoint of thermal unfolding by” value (AHCY A89V; concentration not given) was 8.9 °C.
For `NC(=S)c1ccc[n+]([C@@H]2O[C@H](COP(=O)([O-])OP(=O)(O)OC[C@H]3O[C@@H](n4cnc5c(N)ncnc54)[C@H](O)[C@@H]3O)[C@@H](O)[C@H]2O)c1` [S-NAD^+, thionicotinamide adenine dinucleotide], the “stabilizing effect on thermal stability (in words)” value (“stabilizing effect” for short) [1] was “improved resistance against thermal stress” and the ΔTm at 100 µM (AHCY D86G; D86G, 100 µM) was 6.7 °C.
`NC(=O)c1ncn([C@@H]2O[C@H](CO)[C@@H](O)[C@H]2O)n1` [ribavirin, 1-[(2R,3R,4S,5R)-3,4-dihydroxy-5-(hydroxymethyl)oxolan-2-yl]-1H-1,2,4-triazole-3-carboxamide] was tested, and the “stabilizing effect” value [1] was “good stabilizing effect”.
For `NC(=O)c1ccc[n+]([C@@H]2O[C@H](COP(=O)([O-])OP(=O)(O)OC[C@H]3O[C@@H](n4cnc5c(N)ncnc54)[C@H](O)[C@@H]3O)[C@@H](O)[C@H]2O)c1` [NAD^+, nicotinamide adenine dinucleotide], the “stabilizing effect” value [1] was “very good effects”, the “TM = Temperature at the midpoint of protein unfolding transition” value (AHCY D86G; D86G, 5 µM) was 51,88 and the “TM = Temperature at the midpoint of protein unfolding transition” value (AHCY D86G; D86G, 11 µM) was 53,51. For the same compound, the “TM = Temperature at the midpoint of protein unfolding transition” value (AHCY D86G; D86G, 100 µM) was 54,02, the ΔTm at 100 µM (AHCY D86G) was 4.47 °C and the “TM = Temperature at the midpoint of protein unfolding transition” value (AHCY R49C; 5 µM) was 51,48. For the same compound, the “TM = Temperature at the midpoint of protein unfolding transition” value (AHCY R49C; 11 µM) was 52,55, the “TM = Temperature at the midpoint of protein unfolding transition” value (AHCY R49C; 100 µM) was 52,75 and the “TM = Temperature at the midpoint of protein unfolding transition” value (AHCY A89V; 5 µM) was 51,97. The “TM = Temperature at the midpoint of protein unfolding transition” value (AHCY A89V; 11 µM) was 53,52, the “TM = Temperature at the midpoint of protein unfolding transition” value (AHCY A89V; 100 µM) was 54,59 and the “TM = Temperature at the midpoint of protein unfolding transition” value (AHCY Y143C; 5 µM) was 50,62. The “TM = Temperature at the midpoint of protein unfolding transition” value (AHCY Y143C; 11 µM) was 52,36, the “TM = Temperature at the midpoint of protein unfolding transition” value (AHCY Y143C; 100 µM) was 52,17 and the “TM = Temperature at the midpoint of protein unfolding transition” value (AHCY Y379C; 5 µM) was 51,31. For the same compound, the “TM = Temperature at the midpoint of protein unfolding transition” value (AHCY Y379C; 11 µM) was 52,45, the “TM = Temperature at the midpoint of protein unfolding transition” value (AHCY Y379C; 100 µM) was 52,48 and the ΔTm at 100 µM (wild-type AHCY; AHCY wild-type, 100 µM, read-out: stabilized the unfolding transition by (shift of TM)) was 2.34 °C. For the same compound, the “TM = Temperature at the midpoint of protein unfolding transition” value (wild-type AHCY; 5 µM) was 52,24, the “TM = Temperature at the midpoint of protein unfolding transition” value (wild-type AHCY; 11 µM) was 53,99 and the “TM = Temperature at the midpoint of protein unfolding transition” value (wild-type AHCY; 100 µM) was 54,32.
`Nc1nccc2c1ncn2[C@@H]1C=C(CO)[C@@H](O)[C@H]1O` [DZNep, 3-Deazaneplanocin A] was tested, and the “increase in TM (stabilizing the unfolding by)” value (AHCY D86G; D86G, concentration not given) was 11.18 °C and the ΔTm at 10 µM (AHCY D86G; read-out: ΔTM) was 13.5 °C.
`NC(=O)c1ccc[n+]([C@@H]2O[C@H](COP(=O)([O-])OP(=O)(O)OC[C@H]3O[C@@H](n4cnc5c4ncn4ccnc54)[C@H](O)[C@@H]3O)[C@@H](O)[C@H]2O)c1` [E-NAD^+, nicotinamide 1,N^6-ethenoadenine dinucleotide] was tested, and the “stabilizing effect” value [1] was “considerable stabilization” and the “ΔTM (increase in TM)” value (AHCY R49C; concentration not given) was 4.36 °C.
